Experimental data: US6737383B1, “Herbicidal oxadiazolidines” (priority 1999, dated 2004)

Tests used:
Green foxtail [1] = test: Test D green foxtail; assay type: in vivo; conditions: Postemergence, 0 to 100 scale, 0 no injury, 100 complete control
Green foxtail [2] = test: Test D green foxtail; assay type: in vivo; conditions: Postemergence, 0 to 100 scale, 0 no injury, 100 complete control; remark: listed apart in the source
large crabgrass = test: Test D large crabgrass; assay type: in vivo, Digitaria sanguinalis; conditions: Postemergence, 0 to 100 scale
itchgrass [3] = test: Test D itchgrass; assay type: in vivo, Rottboellia exaltata; conditions: Postemergence, 0 to 100 scale
bermuda-grass = test: Test D bermudagrass; assay type: in vivo, Cynodon dactylon; conditions: Postemergence, 0 to 100 scale
Green foxtail [4] = test: Test D green foxtail; assay type: in vivo; conditions: Rate 250 g/ha; Postemergence; 0 to 100 scale
sandbur = test: Test D sandbur; assay type: in vivo, Cenchrus echinatus; conditions: Postemergence, 0 to 100 scale
common ragweed = test: Test D common ragweed; assay type: in vivo, Ambrosia elatior
purple nutsedge = test: Test D purple nutsedge; assay type: in vivo, Cyperus rotundus; conditions: Postemergence, 0 to 100 scale
barnyardgrass = test: Test A barnyardgrass; assay type: in vivo, Echinochloa crus-galli; conditions: 0 to 10 scale where 0 is no effect and 10 is complete control
Description: Seeds of barnyardgrass (Echinochloa crus-galli), crabgrass (Digitaria spp.), morningglory (Ipomoea spp.), and velvetleaf (Abutilon theophrasti) were planted into a sandy loam soil and treated preemergence by soil drench with test chemicals formulated in a non-phytotoxic solvent mixture which includes a surfactant At the same time, these crop and weed species were also treated postemergence sprayed to runoff, with test chemicals formulated in the same manner.
Plants ranged in height from two to eighteen cm and were in the one to two leaf stage for the postemergence treatment. Treated plants and untreated controls were maintained in a greenhouse for approximately eleven days, after which all treated plants were compared to untreated controls and visually evaluated for injury. Plant response ratings, summarized in Table A, are based on a 0 to 10 scale where 0 is no effect and 10 is complete control.

guineagrass = test: Test D guineagrass; assay type: in vivo, Panicum maximum; conditions: Rate 64 g/ha, Preemergence; 0 to 100 scale, 0 no injury, 100 complete control
Procedure, shortened: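 Values are visual plant-response ratings (0 no injury, 100 complete control) recorded 14 to 21 days after herbicide treatment, using a non-phytotoxic solvent mixture containing surfactant. Preemergence applications went to the surface of pots holding freshly sown seed in sandy loam.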

goosegrass = test: Test D goosegrass; assay type: in vivo, Eleusine indica; conditions: Rate 64 g/ha, Preemergence; 0 to 100 scale, 0 no injury, 100 complete control
From the text: (§1) Seeds, tubers, or plant parts of Alexandergrass (Brachiaria plantaginea), bermuda-grass (Cynodon dactylon), common pursiane (Portulaca oleracea), common ragweed (Ambrosia elatior), common groundsel (Senecio vulgaris), dallisgrass (Paspalum dilatatum), goosegrass (Eleusine indica), guineagrass (Panicum maximum), itchgrass (Rottboellia exaltata), Johnson grass (Sorghum halepense), large crabgrass (Digitaria sanguinalis), pitted morningglory (Ipomoea lacunosa), purple nutsedge (Cyperus rotundus), sandbur (Cenchrus echinatus), sourgrass (Trichachne insularis), Spanishneedles (Bidens bipinnata), surinam grass (Brachiaria decumbens) and tall mallow (Malva sylvestris) were planted into greenhouse pots of flats containing greenhouse planting medium. Plant species were grown in separate pots or individual compartments. Preemergence applications were made within one day of planting the seed or plant part.
(§2) Test chemicals were formulated in a non-phytotoxic solvent mixture which included a surfactant and applied preemergence to the surface of the pot containing seeds in a sandy loam soil. Untreated control pots and treated pots were placed in the greenhouse for growth and visually evaluated for injury 14 to 21 days after herbicide application. Plant response ratings, summarized in Table C, are based on a 0 to 100 scale where 0 is no injury and 100 is complete control. A dash (−) response means no test result.

itchgrass [5] = test: Test D itchgrass; assay type: in vivo, Rottboellia exaltata; conditions: Rate 64 g/ha, Preemergence; 0 to 100 scale, 0 no injury, 100 complete control
Procedure, shortened: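 Scoring used a 0–100 visual injury scale, with 0 meaning no effect and 100 complete control, assessed 14–21 days after application alongside untreated pots. Preemergence treatments went onto sandy loam surfaces of separately potted seeds within a day of sowing.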

common groundsel = test: Test D common groundsel; assay type: in vivo, Senecio vulgaris; conditions: Rate 64 g/ha, Preemergence; 0 to 100 scale, 0 no injury, 100 complete control
From the text: as §1, §2

Spanishneedles = test: Test D Spanishneedles; assay type: in vivo, Bidens bipinnata; conditions: Rate 64 g/ha, Preemergence; 0 to 100 scale, 0 no injury, 100 complete control
From the text: as §1, §2

[6] = Rate 16 g/ha, 0 no injury, 100 complete control
[7] = Rate 32 g/ha, 0 no injury, 100 complete control
[8] = Rate 64 g/ha, 0 no injury, 100 complete control
[9] = Rate 125 g/ha, 0 no injury, 100 complete control
[10] = Rate 32 g/ha; Postemergence; 0 to 100 scale, 0 no injury, 100 complete control
[11] = Rate 64 g/ha, Postemergence; 0 to 100 scale, 0 no injury, 100 complete control
[12] = Rate 125 g/ha, Postemergence; 0 to 100 scale, 0 no injury, 100 complete control
[13] = Rate 250 g/ha; Postemergence; 0 to 100 scale

Row | Structure (SMILES) | Plant response rating, Green foxtail (Green foxtail [1]; Rate 16 g/ha) | Plant response rating, Green foxtail (Green foxtail [1]; Rate 32 g/ha) | Plant response rating, Green foxtail (Green foxtail [2]; Rate 64 g/ha) | Plant response rating, Green foxtail (Green foxtail [2]; Rate 125 g/ha) | Plant response rating Large crabgrass (large crabgrass; [6]) | Plant response rating Large crabgrass (large crabgrass; [7]) | Plant response rating Large crabgrass (large crabgrass; [8]) | Plant response rating Large crabgrass (large crabgrass; [9]) | Plant response rating Large crabgrass (large crabgrass; Rate 250 g/ha) | Plant response rating, Itchgrass (itchgrass [3]; [6]) | Plant response rating, Itchgrass (itchgrass [3]; [7]) | Plant response rating, Itchgrass (itchgrass [3]; [8]) | Plant response rating, Itchgrass (itchgrass [3]; [9]) | Plant response rating, Itchgrass (itchgrass [3]; Rate 250 g/ha) | Plant response rating, Bermudagrass (bermuda-grass; [6]) | Plant response rating, Bermudagrass (bermuda-grass; [7]) | Plant response rating, Bermudagrass (bermuda-grass; [8]) | Plant response rating, Bermudagrass (bermuda-grass; [9]) | Plant response rating, Bermudagrass (bermuda-grass; Rate 250 g/ha) | Plant response rating, Green foxtail (Green foxtail [4]) | other results
1 | COCC(C)n1c(=O)on(C(=O)N(c2ccc(F)cc2F)C(C)C)c1=O (centres unmarked) [Compound 352] | 0 | 100 | 100 | 100 | 0 | 100 | 100 | 100 | 100 | 0 | 0 | 0 | 20 | 60 | 0 | 80 | 100 | 100 | 100 | 100 | Plant response rating, Sandbur (sandbur; [6]): 0; Plant response rating, Sandbur (sandbur; [7]): 90; Sandbur plant response rating (sandbur; [8]): 70; Sandbur plant response rating (sandbur; [9]): 100; Plant response rating, Sandbur (sandbur; Rate 250 g/ha): 100; Plant response rating, C. ragweed (common ragweed; Postemergence; Rate 16 g/ha; 0 to 100 scale, 0 no injury, 100 complete control): 0; Plant response rating, C. ragweed (common ragweed; [10]): 0; Plant response rating, C. ragweed (common ragweed; [11]): 20; Plant response rating, C. ragweed (common ragweed; [12]): 20; Plant response rating, C. ragweed (common ragweed; [13]): 100; Plant response rating, Purple nutsedge (purple nutsedge; [6]): 0; Plant response rating, Purple nutsedge (purple nutsedge; [7]): 0; Purple nutsedge plant response rating (purple nutsedge; [8]): 0; Purple nutsedge plant response rating (purple nutsedge; [9]): 0; Plant response rating, Purple nutsedge (purple nutsedge; Rate 250 g/ha): 0
2 | Cc1ccccc1Cn1c(=O)on(C(=O)N(c2ccc(Cl)cc2)C(C)C)c1=O [Compound 136] | – | – | – | – | – | – | – | – | – | – | – | – | – | – | – | – | – | – | – | – | Plant response rating, Barnyardgrass (barnyardgrass; Postemergence, Rate 1000 g/ha): 4; Plant response rating, Barnyardgrass (barnyardgrass; Pre-emergence, Rate 2000 g/ha): 9
3 | C=C(C)Cn1c(=O)on(C(=O)N(c2ccc(F)cc2)C(C)C)c1=O [Compound 139] | – | – | – | – | – | – | – | – | – | – | – | – | – | – | – | – | – | – | – | – | Plant response rating, Guineagrass (guineagrass): 65; Plant response rating, Goosegrass (goosegrass): 98; Plant response rating, Itchgrass (itchgrass [5]): 20; Plant response rating, Com. groundsel (common groundsel): 0; Spanishneedles plant response rating (Spanishneedles): 20
4 | CC(C)N(C(=O)n1oc(=O)n(C2(C)CC2)c1=O)c1ccccc1 [Compound 360] | 0 | 70 | 100 | 100 | 0 | 80 | 100 | 100 | 100 | 0 | 0 | 0 | 20 | 30 | 0 | 100 | 100 | 100 | 100 | 100 | Plant response rating, Sandbur (sandbur; [6]): 0; Plant response rating, Sandbur (sandbur; [7]): 90; Sandbur plant response rating (sandbur; [8]): 50; Sandbur plant response rating (sandbur; [9]): 100; Plant response rating, Sandbur (sandbur; Rate 250 g/ha): 100; Plant response rating, C. ragweed (common ragweed; Rate 16 g/ha; Postemergence; 0 to 100 scale, 0 no injury, 100 complete control): 0; Plant response rating, C. ragweed (common ragweed; [10]): 0; C. ragweed plant response rating (common ragweed; [11]): 30; Plant response rating, C. ragweed (common ragweed; [12]): 30; Plant response rating, C. ragweed (common ragweed; [13]): 30; Plant response rating, Purple nutsedge (purple nutsedge; [6]): 0; Plant response rating, Purple nutsedge (purple nutsedge; [7]): 0; Purple nutsedge plant response rating (purple nutsedge; [8]): 0; Purple nutsedge plant response rating (purple nutsedge; [9]): 10; Plant response rating, Purple nutsedge (purple nutsedge; Rate 250 g/ha): 20
